Laboratory results taken from ChEMBL document CHEMBL3232888, “Optimization of anti-virulence PqsR antagonists regarding aqueous solubility and biological properties resulting in new insights in structure-activity relationships” (Eur J Med Chem, 2014).
≈ marks a conversion by molar mass, not a printed value.

What was measured:
Pseudomonas aeruginosa [1] = assay: Antagonist activity at Pseudomonas aeruginosa PqsR expressed in Escherichia coli DH5alpha assessed as inhibition of PQS-induced transcriptional activity at 50 nM by beta-galactosidase reporter gene assay relative to PQS
Pseudomonas aeruginosa [2] = assay: Antagonist activity at Pseudomonas aeruginosa PqsR expressed in Escherichia coli DH5alpha assessed as inhibition of PQS-induced transcriptional activity at 5 uM by beta-galactosidase reporter gene assay relative to PQS
[3] = Aqueous solubility of the compound in 2% DMSO at pH 7.4 by HPLC analysis; type: physicochemical; conditions: aqueous medium with 2% DMSO
Pseudomonas aeruginosa [4] = assay: Agonist activity at Pseudomonas aeruginosa PqsR expressed in Escherichia coli DH5alpha assessed as induction of transcriptional activity at 5 uM by beta-galactosidase reporter gene assay relative to PQS
Pseudomonas aeruginosa [5] = assay: Antivirulence activity in Pseudomonas aeruginosa PA14 assessed as reduction of extracellular level of pyocyanin at 15 uM relative to control; type: functional; design: scale not given: the % may be the effect or the level left
[6] = Antagonist activity at Pseudomonas aeruginosa PqsR expressed in Escherichia coli DH5alpha assessed as inhibition of PQS-induced transcriptional activity by beta-galactosidase reporter gene assay relative to PQS
Pseudomonas aeruginosa [7] = assay: Growth inhibition of Pseudomonas aeruginosa; type: organism-based; conditions: in vivo
Pseudomonas aeruginosa [8] = assay: Antivirulence activity in Pseudomonas aeruginosa PA14 assessed as reduction of extracellular level of PQS at 15 uM by UHPLC-MS/MS analysis relative to control; type: functional; design: scale not given: the % may be the effect or the level left
[9] = Metal chelating activity of the compound assessed as CAS iron-chelation after 15 mins; type: physicochemical; conditions: 0.25 h
Pseudomonas aeruginosa [10] = assay: Antivirulence activity in Pseudomonas aeruginosa PA14 assessed as reduction of extracellular level of pyocyanin; type: functional
Pseudomonas aeruginosa [11] = assay: Agonist activity at Pseudomonas aeruginosa PqsR expressed in Escherichia coli DH5alpha assessed as induction of transcriptional activity at 1 uM by beta-galactosidase reporter gene assay relative to PQS
Pseudomonas aeruginosa [12] = assay: Antivirulence activity in Pseudomonas aeruginosa PA14 assessed as reduction of extracellular level of pyocyanin at 100 uM relative to control; type: functional; design: scale not given: the % may be the effect or the level left
Pseudomonas aeruginosa [13] = assay: Antivirulence activity in Pseudomonas aeruginosa PA14 assessed as reduction of extracellular level of PQS at 100 uM by UHPLC-MS/MS analysis relative to control; type: functional; design: scale not given: the % may be the effect or the level left
Pseudomonas aeruginosa [14] = assay: Antivirulence activity in Pseudomonas aeruginosa PA14 assessed as reduction of extracellular level of pyocyanin at 10 uM relative to control; type: functional; design: scale not given: the % may be the effect or the level left
Pseudomonas aeruginosa [15] = assay: Antivirulence activity in Pseudomonas aeruginosa PA14 assessed as reduction of extracellular level of PQS at 10 uM by UHPLC-MS/MS analysis relative to control; type: functional; design: scale not given: the % may be the effect or the level left
Pseudomonas aeruginosa [16] = assay: Agonist activity at Pseudomonas aeruginosa PqsR expressed in Escherichia coli DH5alpha assessed as induction of transcriptional activity at 10 uM by beta-galactosidase reporter gene assay relative to PQS
Pseudomonas aeruginosa [17] = assay: Antivirulence activity in Pseudomonas aeruginosa PA14 assessed as reduction of extracellular level of PQS at 250 uM by UHPLC-MS/MS analysis relative to control; type: functional; design: scale not given: the % may be the effect or the level left
Pseudomonas aeruginosa [18] = assay: Antivirulence activity in Pseudomonas aeruginosa PA14 assessed as reduction of extracellular level of pyocyanin at 250 uM relative to control; type: functional; design: scale not given: the % may be the effect or the level left

SMILES | inhibition (Pseudomonas aeruginosa [1]) [%] | inhibition (Pseudomonas aeruginosa [2]) [%] | solubility [3] [µM] | Activity (Pseudomonas aeruginosa [4]) [%] | IC50 [6] [nM] | Activity (Pseudomonas aeruginosa [7]) | also measured
CCCCCCCc1cc(=O)c2cc(C(F)(F)F)ccc2n1C | 31 | 100 | 5 (≈ 1.63 µg/mL) | 0 | 270 | Non-toxic | Activity (Pseudomonas aeruginosa [5]): 58%; Activity (Pseudomonas aeruginosa [8]): 8.9%
CCCCCCCc1[nH]c2ccccc2c(=O)c1N | -4 | -7 | 50 (≈ 12.9 µg/mL) | 1.22 | – | – | –
CCCCCCCc1[nH]c2ccc([N+](=O)[O-])cc2c(=O)c1C(N)=O | 60 | 100 | 15 (≈ 4.97 µg/mL) | 0 | 35 | Non-toxic | Activity [9]: Not Active; Activity (Pseudomonas aeruginosa [5]): 81%; IC50 (Pseudomonas aeruginosa [10]): 2000 nM; Activity (Pseudomonas aeruginosa [8]): 37%
CCCCCOCc1cc(=O)c2cc(C(F)(F)F)ccc2[nH]1 | 29 | 100 | 15 (≈ 4.7 µg/mL) | 0 | 172 | Non-toxic | Activity (Pseudomonas aeruginosa [5]): 29%; Activity (Pseudomonas aeruginosa [8]): 21%
CCCCCOCc1cc(=O)c2cc([N+](=O)[O-])ccc2[nH]1 | 49 | 100 | 15 (≈ 4.35 µg/mL) | 0 | 253 | Non-toxic | Activity (Pseudomonas aeruginosa [5]): 27%; Activity (Pseudomonas aeruginosa [8]): 23%
CCCCCCCc1[nH]c2ccccc2c(=O)c1CO | 5 | 28 | 50 (≈ 13.7 µg/mL) | 0.49 | – | – | –
CCCCCCCc1cc(=O)c2cnccc2[nH]1 | 8 | 2 | 50 (≈ 12.2 µg/mL) | 0.82 | – | – | –
CCCCCCCc1cc(OC)c2ccccc2n1 | -23 | -6 | 5 (≈ 1.29 µg/mL) | 0.03 | – | – | –
CCCCCCc1cc(=O)c2cc(C(F)(F)F)ccc2n1C | 45 | 100 | 15 (≈ 4.67 µg/mL) | 0 | 229 | Non-toxic | –
CCCCCCCc1cc(=O)c2ccccc2[nH]1 | – | – | – | – | – | – | Activity (Pseudomonas aeruginosa [11]): 0.75%
CCCCCCCc1cc(O)c2ccccc2n1 | – | – | 15 (≈ 3.65 µg/mL) | – | – | – | –
CCOCCCCc1cc(=O)c2cc([N+](=O)[O-])ccc2[nH]1 | 6 | 72 | 50 (≈ 14.5 µg/mL) | 0.13 | 3510 | Non-toxic | Activity (Pseudomonas aeruginosa [12]): 23%; Activity (Pseudomonas aeruginosa [13]): 13%
CCCCCOCc1cc(=O)c2ccccc2[nH]1 | 11 | 6 | > 200 | 0.89 | – | – | –
CCCCCCCc1cc(=O)c2cc(C(F)(F)F)ccc2[nH]1 | 54 | 100 | < 5 | 0 | 54 | Non-toxic | Activity (Pseudomonas aeruginosa [14]): 27%; Activity (Pseudomonas aeruginosa [15]): 2.4%
CCCCCCCc1cc(=O)c2cc([N+](=O)[O-])ccc2[nH]1 | 73 | 100 | < 5 | – | 51 | Non-toxic | Activity (Pseudomonas aeruginosa [5]): 44%; Activity (Pseudomonas aeruginosa [16]): 0%; Activity (Pseudomonas aeruginosa [8]): 14%
CCOCCCCc1cc(=O)c2ccccc2[nH]1 | 54 | 42 | > 200 | 0.31 | – | – | –
CCOCCCCc1cc(=O)c2cc(C(F)(F)F)ccc2[nH]1 | 8 | 69 | > 200 | 0.02 | 1710 | Non-toxic | Activity (Pseudomonas aeruginosa [17]): 8.6%; Activity (Pseudomonas aeruginosa [18]): 39%
CCCCCCCc1[nH]c2ccc([N+](=O)[O-])cc2c(=O)c1CO | 45 | 100 | 5 (≈ 1.59 µg/mL) | 0 | 72 | Non-toxic | Activity [9]: Not Active; Activity (Pseudomonas aeruginosa [5]): 83%; IC50 (Pseudomonas aeruginosa [10]): 3800 nM; Activity (Pseudomonas aeruginosa [8]): 33%
CCCCCCCc1[nH]c2ccncc2c(=O)c1C(=O)O | 6 | 20 | 50 (≈ 14.4 µg/mL) | 0.66 | – | – | –

Continued, in another order:

inhibition (Pseudomonas aeruginosa [1]) [%] | inhibition (Pseudomonas aeruginosa [2]) [%] | solubility [3] [µM] | Activity (Pseudomonas aeruginosa [4]) [%] | SMILES | IC50 [6] [nM] | Activity (Pseudomonas aeruginosa [7]) | also measured
12 | 41 | 15 (≈ 4.31 µg/mL) | 0.73 | CCCCCCCc1[nH]c2ccccc2c(=O)c1C(=O)O | – | – | –
-31 | -29 | < 5 | 1.25 | CCCCCCCc1[nH]c2ccc([N+](=O)[O-])cc2c(=O)c1O | – | – | –
2 | 27 | 5 (≈ 1.81 µg/mL) | 0.09 | CCOCCCCc1[nH]c2ccc([N+](=O)[O-])cc2c(=O)c1C(=O)OCC | – | – | –
24 | 76 | 50 (≈ 15.8 µg/mL) | 0.02 | CCCCCCCc1[nH]c2ccncc2c(=O)c1C(=O)OCC | – | – | –
15 | 29 | > 200 | 0.83 | CCCCCCCc1[nH]c2ccccc2c(=O)c1C(=O)NO | – | – | –
7 | 6 | 50 (≈ 16.7 µg/mL) | 0.48 | CCCCCOCc1[nH]c2ccc([N+](=O)[O-])cc2c(=O)c1C(=O)O | – | – | –
1 | 33 | 50 (≈ 16.7 µg/mL) | 0.42 | CCOCCCCc1[nH]c2ccc([N+](=O)[O-])cc2c(=O)c1C(=O)O | – | – | –
14 | 17 | < 5 | 0.84 | CCCCCCCc1[nH]c2ccccc2c(=O)c1[N+](=O)[O-] | – | – | –
11 | 34 | 15 (≈ 4.99 µg/mL) | 0.78 | CCCCCCCc1[nH]c2ccc([N+](=O)[O-])cc2c(=O)c1C(=O)O | – | – | –
-8 | 20 | 5 (≈ 1.8 µg/mL) | 0 | CCCCCCCc1[nH]c2ccc([N+](=O)[O-])cc2c(=O)c1C(=O)OCC | – | – | –
8 | 27 | 5 (≈ 1.43 µg/mL) | 0.65 | CCCCCCCc1[nH]c2ccccc2c(=O)c1C(N)=O | – | – | –
2 | 13 | 15 (≈ 5.44 µg/mL) | 0 | CCCCCOCc1[nH]c2ccc([N+](=O)[O-])cc2c(=O)c1C(=O)OCC | – | – | –
18 | 32 | 5 (≈ 1.58 µg/mL) | 0 | CCCCCCCc1[nH]c2ccccc2c(=O)c1C(=O)OCC | – | – | –
30 | 78 | > 200 | 0.3 | CCCCCCCc1[nH]c2ccc([N+](=O)[O-])cc2c(=O)c1C(=O)NO | – | – | –
